Format in all cases: cell-based
The test system of one assay is Coxsackie virus B3. Briefly: in vitro inhibition of Coxsackie virus B3 replication. To be noted: for SI against Coxsackie virus B3 replication: selectivity index, preliminary in vitro assay.
In assay [1] the test system is influenza virus A/Hanfang/359/95 (H3N2). Briefly: in vitro antiviral assay against influenza virus A/Hanfang/359/95. To be noted: selectivity index, preliminary in vitro assay.
For assay [2], the system named is herpes simplex virus 1 (HSV-1). Briefly: in vitro antiviral assay against herpes simplex virus 1.

The term IC50 denotes the concentration at which inhibition is half-maximal. `Cc1cc(CCCOc2c(C)cc(-c3noc(C(F)(F)F)n3)cc2C)on1` [Pleconaril]: in the assay with Coxsackie virus B3 (Enterovirus B, B3, read-out: IC50 against Coxsackie virus B3 replication), the IC50 turned out to be 410 nM. The “SI against Coxsackie virus B3 replication” value with Coxsackie virus B3 is given as 243.9.

As for `NC(=O)c1ncn([C@@H]2O[C@H](CO)[C@@H](O)[C@H]2O)n1` [RBV], the “SI against Coxsackie virus B3 replication” value in the assay with Coxsackie virus B3 turned out to be 9.0. Besides, the “SI against influenza virus A/Hanfang/359/95 (H3N2)” value in assay [1] was 1200.

Regarding `Nc1nc2c(ncn2COCCO)c(=O)[nH]1` [acyclovir], the 50% inhibitory concentration (IC50) in assay [2] (Human alphaherpesvirus 1, read-out: IC50 against herpes simplex virus 1 (HSV-1)) stood at 710 nM. Further, the “SI against herpes simplex virus 1 (HSV-1)” value in assay [2] (selectivity index, preliminary in vitro assay) amounted to 140.9.
